Reference: patent US12077503B2, “Substituted cyclic amides and their use as herbicides” (FMC CORPORATION, priority 2015, dated 2024)

Tests used:
Type in all cases: in vivo
[1] = system: corn (Zea mays); test: Test G Pre-Emergence Protocol; settings: Zea mays, pre-emergence, 312 h, evaluated after 13 days; for plant injury at 15.625 g/ha: 15.625 g ai/ha; for plant injury at 15.625 g/ha / plant injury at 250 g/ha: read-out: Corn damage rating (100=total damage to plant; 0=no damage to plant); for plant injury at 62.5 g/ha: 62.5 g ai/ha, 100=total damage to plant, 0=no damage to plant, read-out: plant damage rating, Corn; for plant injury at 250 g/ha: 250 g ai/ha
Summary of the method: (§1)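 Spraying took place one day after sowing, at 15.625, 62.5 or 250 g/ha, using an acetone/water (50:50) spray solution containing 0.5% Tween 20. Plants were kept under glasshouse conditions (24/16 °C, 14 h light, 65% humidity, watered twice daily), and injury was rated 0–100 at day 13.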

[2] = system: redroot pigweed (Amaranthus retroflexus); test: Test G Pre-Emergence Protocol; settings: Amaranthus retroflexus, pre-emergence, 312 h, evaluated after 13 days; for pest or weed control at 15.625 g/ha: 15.625 g ai/ha; for pest or weed control at 15.625 g/ha / pest or weed control at 250 g/ha: read-out: Pigweed, Redroot damage rating (100=total damage to plant; 0=no damage to plant); for pest or weed control at 62.5 g/ha: 62.5 g ai/ha, 100=total damage to plant, 0=no damage to plant, read-out: plant damage rating, Pigweed, Redroot; for pest or weed control at 250 g/ha: 250 g ai/ha
Summary of the method: as §1

[3] = system: barnyardgrass (Echinochloa crus-galli); test: Test G Pre-Emergence Protocol; settings: Echinochloa crus-galli, pre-emergence, 312 h, evaluated after 13 days; for pest or weed control at 15.625 g/ha: 15.625 g ai/ha, read-out: Barnyard grass damage rating (100=total damage to plant; 0=no damage to plant); for pest or weed control at 62.5 g/ha: 62.5 g ai/ha, 100=total damage to plant, 0=no damage to plant, read-out: plant damage rating, Barnyardgrass; for pest or weed control at 250 g/ha: 250 g ai/ha, read-out: Barnyardgrass damage rating (100=total damage to plant; 0=no damage to plant)
Summary of the method: as §1

[4] = system: velvetleaf (Abutilon theophrasti); test: Test G Pre-Emergence Protocol; settings: Abutilon theophrasti, pre-emergence, 312 h, evaluated after 13 days; for pest or weed control at 15.625 g/ha: 15.625 g ai/ha; for pest or weed control at 15.625 g/ha / pest or weed control at 250 g/ha: read-out: Velvetleaf damage rating (100=total damage to plant; 0=no damage to plant); for pest or weed control at 62.5 g/ha: 62.5 g ai/ha, 100=total damage to plant, 0=no damage to plant, read-out: plant damage rating, Velvetleaf; for pest or weed control at 250 g/ha: 250 g ai/ha
Summary of the method: as §1

[5] = system: giant foxtail (Setaria faberi); test: Test G Pre-Emergence Protocol; settings: Setaria faberi, pre-emergence, 312 h, evaluated after 13 days; for pest or weed control at 15.625 g/ha: 15.625 g ai/ha; for pest or weed control at 15.625 g/ha / pest or weed control at 250 g/ha: read-out: Foxtail, Giant damage rating (100=total damage to plant; 0=no damage to plant); for pest or weed control at 62.5 g/ha: 62.5 g ai/ha, 100=total damage to plant, 0=no damage to plant, read-out: plant damage rating, Foxtail, Giant; for pest or weed control at 250 g/ha: 250 g ai/ha
Summary of the method: as §1

[6] = system: ivy-leaved morning glory (Ipomoea hederacea); test: Test G Pre-Emergence Protocol; settings: Ipomoea, pre-emergence, 312 h, evaluated after 13 days; for pest or weed control at 15.625 g/ha: 15.625 g ai/ha, read-out: Morning-glory, Ivy-leaved damage rating (100=total damage to plant; 0=no damage to plant); for pest or weed control at 62.5 g/ha: 62.5 g ai/ha, 100=total damage to plant, 0=no damage to plant, read-out: plant damage rating, Morningglory, Ivy-leaved; for pest or weed control at 250 g/ha: 250 g ai/ha, read-out: Morningglory, Ivy-leaved damage rating (100=total damage to plant; 0=no damage to plant)
Summary of the method: as §1

[7] = system: corn (Zea mays); test: Test G Post-Emergence Protocol; settings: Zea mays, post-emergence, 312 h; for plant injury at 15.625 g/ha: 15.625 g ai/ha, evaluated after 13 days (100=total damage to plant; 0=no damage to plant), read-out: Corn damage rating; for plant injury at 62.5 g/ha: 62.5 g ai/ha, read-out: Corn damage rating (100=total damage to plant; 0=no damage to plant); for plant injury at 62.5 g/ha / plant injury at 250 g/ha: evaluated after 13 days; for plant injury at 250 g/ha: 250 g ai/ha, read-out: damage to plant, Corn (100=total damage to plant; 0=no damage to plant)
Summary of the method: (§2)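 Values are percent visual injury at 13 days after treatment (0 none, 100 total). Treatment was a post-emergence spray at 15.625, 62.5 or 250 g/ha on 8-day-old pot plants kept at 24/16 °C.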

[8] = system: redroot pigweed (Amaranthus retroflexus); test: Test G Post-Emergence Protocol; settings: Amaranthus retroflexus, post-emergence, 312 h; for pest or weed control at 15.625 g/ha: 15.625 g ai/ha, evaluated after 13 days (100=total damage to plant; 0=no damage to plant), read-out: Pigweed, Redroot damage rating; for pest or weed control at 62.5 g/ha: 62.5 g ai/ha, read-out: Pigweed, Redroot damage rating (100=total damage to plant; 0=no damage to plant); for pest or weed control at 62.5 g/ha / pest or weed control at 250 g/ha: evaluated after 13 days; for pest or weed control at 250 g/ha: 250 g ai/ha, read-out: damage to plant, Pigweed, Redroot (100=total damage to plant; 0=no damage to plant)
Summary of the method: as §2

[9] = system: barnyardgrass (Echinochloa crus-galli); test: Test G Post-Emergence Protocol; settings: Echinochloa crus-galli, post-emergence, 312 h; for pest or weed control at 15.625 g/ha: 15.625 g ai/ha, evaluated after 13 days (100=total damage to plant; 0=no damage to plant), read-out: Barnyardgrass damage rating; for pest or weed control at 62.5 g/ha: 62.5 g ai/ha, read-out: Barnyardgrass damage rating (100=total damage to plant; 0=no damage to plant); for pest or weed control at 62.5 g/ha / pest or weed control at 250 g/ha: evaluated after 13 days; for pest or weed control at 250 g/ha: 250 g ai/ha, read-out: damage to plant, Barnyardgrass (100=total damage to plant; 0=no damage to plant)
Summary of the method: as §2

[10] = system: velvetleaf (Abutilon theophrasti); test: Test G Post-Emergence Protocol; settings: Abutilon theophrasti, post-emergence, 312 h; for pest or weed control at 15.625 g/ha: 15.625 g ai/ha, evaluated after 13 days (100=total damage to plant; 0=no damage to plant), read-out: Velvetleaf damage rating; for pest or weed control at 62.5 g/ha: 62.5 g ai/ha, read-out: Velvetleaf damage rating (100=total damage to plant; 0=no damage to plant); for pest or weed control at 62.5 g/ha / pest or weed control at 250 g/ha: evaluated after 13 days; for pest or weed control at 250 g/ha: 250 g ai/ha, read-out: damage to plant, Velvetleaf (100=total damage to plant; 0=no damage to plant)
Summary of the method: as §2

[11] = system: giant foxtail (Setaria faberi); test: Test G Post-Emergence Protocol; settings: Setaria faberi, post-emergence, 312 h; for pest or weed control at 15.625 g/ha: 15.625 g ai/ha, evaluated after 13 days (100=total damage to plant; 0=no damage to plant), read-out: Foxtail, Giant damage rating; for pest or weed control at 62.5 g/ha: 62.5 g ai/ha, read-out: Foxtail, Giant damage rating (100=total damage to plant; 0=no damage to plant); for pest or weed control at 62.5 g/ha / pest or weed control at 250 g/ha: evaluated after 13 days; for pest or weed control at 250 g/ha: 250 g ai/ha, read-out: damage to plant, Foxtail, Giant (100=total damage to plant; 0=no damage to plant)
Summary of the method: as §2

[12] = system: ivy-leaved morning glory (Ipomoea hederacea); test: Test G Post-Emergence Protocol; settings: Ipomoea, post-emergence, 312 h; for pest or weed control at 15.625 g/ha: 15.625 g ai/ha, evaluated after 13 days (100=total damage to plant; 0=no damage to plant), read-out: Morningglory, Ivy-leaved damage rating; for pest or weed control at 62.5 g/ha: 62.5 g ai/ha, read-out: Morningglory, Ivy-leaved damage rating (100=total damage to plant; 0=no damage to plant); for pest or weed control at 62.5 g/ha / pest or weed control at 250 g/ha: evaluated after 13 days; for pest or weed control at 250 g/ha: 250 g ai/ha, read-out: damage to plant, Morningglory, Ivy-leaved (100=total damage to plant; 0=no damage to plant)
Summary of the method: as §2

SMILES | plant injury at 15.625 g/ha [1] [%] | plant injury at 62.5 g/ha [1] [%] | plant injury at 250 g/ha [1] [%] | pest or weed control at 15.625 g/ha [2] [%] | pest or weed control at 62.5 g/ha [2] [%] | pest or weed control at 250 g/ha [2] [%] | pest or weed control at 15.625 g/ha [3] [%] | pest or weed control at 62.5 g/ha [3] [%] | pest or weed control at 250 g/ha [3] [%] | pest or weed control at 15.625 g/ha [4] [%] | pest or weed control at 62.5 g/ha [4] [%] | pest or weed control at 250 g/ha [4] [%] | pest or weed control at 15.625 g/ha [5] [%] | pest or weed control at 62.5 g/ha [5] [%] | pest or weed control at 250 g/ha [5] [%] | pest or weed control at 15.625 g/ha [6] [%] | pest or weed control at 62.5 g/ha [6] [%] | pest or weed control at 250 g/ha [6] [%] | plant injury at 15.625 g/ha [7] [%] | plant injury at 62.5 g/ha [7] [%] | other results
CN1C[C@@H](c2ccc(Cl)nc2)[C@H](C(=O)Nc2cccc(F)c2F)C1=O (racemic) [Compound 1462] | 0 | 0 | 0 | 0 | 0 | 0 | 20 | 50 | 80 | 0 | 0 | 0 | 0 | 70 | 80 | 0 | 0 | 50 | 0 | 0 | plant injury at 250 g/ha [7]: 10%; pest or weed control at 15.625 g/ha [8]: 0%; pest or weed control at 62.5 g/ha [8]: 0%; pest or weed control at 250 g/ha [8]: 0%; pest or weed control at 15.625 g/ha [9]: 0%; pest or weed control at 62.5 g/ha [9]: 20%; pest or weed control at 250 g/ha [9]: 30%; pest or weed control at 15.625 g/ha [10]: 0%; pest or weed control at 62.5 g/ha [10]: 0%; pest or weed control at 250 g/ha [10]: 0%; pest or weed control at 15.625 g/ha [11]: 0%; pest or weed control at 62.5 g/ha [11]: 50%; pest or weed control at 250 g/ha [11]: 70%; pest or weed control at 15.625 g/ha [12]: 0%; pest or weed control at 62.5 g/ha [12]: 20%; pest or weed control at 250 g/ha [12]: 10%
CN1C[C@H](c2cccc(C(F)F)c2)[C@@H](C(=O)Nc2ccccc2F)C1=O (racemic) [Compound 1464] | 0 | 50 | 80 | 0 | 0 | 0 | 80 | 90 | 90 | 0 | 0 | 0 | 80 | 90 | 90 | 0 | 30 | 70 | 20 | 10 | plant injury at 250 g/ha [7]: 80%; pest or weed control at 15.625 g/ha [8]: 10%; pest or weed control at 62.5 g/ha [8]: 10%; pest or weed control at 250 g/ha [8]: 30%; pest or weed control at 15.625 g/ha [9]: 20%; pest or weed control at 62.5 g/ha [9]: 20%; pest or weed control at 250 g/ha [9]: 50%; pest or weed control at 15.625 g/ha [10]: 10%; pest or weed control at 62.5 g/ha [10]: 0%; pest or weed control at 250 g/ha [10]: 10%; pest or weed control at 15.625 g/ha [11]: 70%; pest or weed control at 62.5 g/ha [11]: 70%; pest or weed control at 250 g/ha [11]: 70%; pest or weed control at 15.625 g/ha [12]: 10%; pest or weed control at 62.5 g/ha [12]: 20%; pest or weed control at 250 g/ha [12]: 50%
COc1c(Cl)ccc([C@H]2CNC(=O)[C@@H]2C(=O)Nc2cccc(F)n2)c1F (racemic) [Compound 1478] | 0 | 0 | 10 | 0 | 0 | 0 | 0 | 0 | 30 | 0 | 0 | 0 | 0 | 0 | 40 | 0 | 0 | 0 | 0 | 10 | plant injury at 250 g/ha [7]: 20%; pest or weed control at 15.625 g/ha [8]: 0%; pest or weed control at 62.5 g/ha [8]: 0%; pest or weed control at 250 g/ha [8]: 10%; pest or weed control at 15.625 g/ha [9]: 10%; pest or weed control at 62.5 g/ha [9]: 40%; pest or weed control at 250 g/ha [9]: 60%; pest or weed control at 15.625 g/ha [10]: 0%; pest or weed control at 62.5 g/ha [10]: 0%; pest or weed control at 250 g/ha [10]: 0%; pest or weed control at 15.625 g/ha [11]: 10%; pest or weed control at 62.5 g/ha [11]: 30%; pest or weed control at 250 g/ha [11]: 60%; pest or weed control at 15.625 g/ha [12]: 0%; pest or weed control at 62.5 g/ha [12]: 0%; pest or weed control at 250 g/ha [12]: 10%
